Measurements reported in PubChem BioAssay AID1053134 (The Scripps Research Institute Molecular Screening Center, 2014).
The source made the active and inactive calls. The rule behind the calls is not given here.

Target: methionyl-tRNA synthetase (Trypanosoma brucei brucei)
Test: T. brucei MetRS inhibitors, orthogonal readout, late-stage follow-up, orthogonal assay for T. brucei MetRS inhibitor project, biochemical, fluorescence polarization, dose response, round 3 (AID 1053134)
Details: recombinant T. brucei MetRS

IC50	SMILES
> 119000 nM (inactive)	CCN(CC)C(=O)C(=O)c1cn(CCNc2cccc(C(F)(F)F)c2)c2ccccc12
> 119000 nM (inactive)	CCN(CC)C(=O)C(=O)c1cn(CCNc2cc(Oc3ccccc3)cc(C(F)(F)F)c2)c2ccccc12
145 nM	CCN(CC)C(=O)C(=O)c1cn(CC(=O)Nc2cc(Oc3ccccc3)cc(C(F)(F)F)c2)c2ccccc12
381 nM	CCN(CC)C(=O)C(=O)c1cn(CC(=O)Nc2cc(Oc3ccccc3F)cc(C(F)(F)F)c2)c2ccccc12

The next lines start with the molecule.

SMILES	IC50
O=C(Cc1ccc(Nc2nc3ccc(Br)cc3[nH]2)cc1)NCCc1cccs1	inactive
CCN(CC)C(=O)C(=O)c1cn(CC(=O)Nc2cc(Oc3ccccc3OC)cc(C(F)(F)F)c2)c2ccccc12	521 nM
Nc1c(Cl)ncnc1Nc1ccc(C(=O)O)cc1	8500 nM
CCN(CC)C(=O)C(=O)c1cn(CC(=O)Nc2cccc(C(F)(F)F)c2)c2ccccc12	360 nM
CCN(CC)C(=O)C(=O)c1cn(CC(=O)Nc2cc(Oc3ccc(F)cc3)cc(C(F)(F)F)c2)c2ccccc12	632 nM
O=C(Cn1cc(C(=O)C(=O)NCc2ccccc2)c2ccccc21)Nc1cc(Oc2ccccc2)cc(C(F)(F)F)c1	inactive
CCN(CC)C(=O)C(=O)c1cn(CC(=O)Nc2cc(Oc3ccc(OC)cc3)cc(C(F)(F)F)c2)c2ccccc12	477 nM
CCN(CC)C(=O)Cc1cn(CC(=O)Nc2cccc(C(F)(F)F)c2)c2ccccc12	> 119000 nM (inactive)
